Values quoted from earlier work as cited in US8617624B2, “Compositions, systems and methods for the diagnosis, prevention and treatment of disorders associated with azetidine-2-carboxylic acid” (priority 2006, dated 2013).

What was measured:
[1] = tested on: pregnant mice; details: fed to pregnant mice
[2] = tested on: pigs
[3] = tested on: hamsters; details: exposure during pregnancy in hamsters

SMILES | teratogenic effect [1] | effect on wound healing [2] | teratogenic effect [3] | increase in plasma proline concentration (1 mmol proline/kg lean body mass) | plasma proline increase when glucose also ingested (1 mmol proline/kg lean body mass with about 25 g of glucose) | absorption of proline (ingestion)
O=C(O)C1CCN1 (stereo not drawn) [Aze, Azetidine-2-carboxylic acid] | predisposes to cleft palate | delayed wound healing | fetal weight abnormalities, tissue hemorrhages, cleft palate, retarded ossifications, and shortened bones |  |  | 
O=C(O)[C@@H]1CCCN1 [proline] |  |  |  | approximately 13 fold | decreased by half | readily absorbed
